Reference: article PMC12281475, “Mediator Kinase Inhibitor Selectivity and Activity in Colorectal Cancer” (ACS Chemical Biology, 2025)

System: COLO205 cells
Test: Phospho-proteome profiling (CDK-motif antibody enrichment, LC-MS/MS)
Assay type: cell-based, human
Conditions: for CMPD 1/DMSO / MEAN MS SIGNAL CMPD 1 6 H: 6 H
Text: We phospho-proteome profiled COLO205 cells to identify Mediator kinase substrates following chemical inhibition of Mediator kinase activity. Given the confirmed CDK8/19 selectivity of our compounds in binding and enzymatic activity assays, we employed a pool of antibodies selective for the proline-rich motifs phosphorylated by the CDK family to enrich potential CDK8/19 substrates for LC-MS/MS analysis.
Adherent COLO205 cells were lysed with a urea buffer, lysates were reduced with DTT, alkylated with iodoacetimide and digested with trypsin-tosylphenylalanyl chloromethyl ketone. Digested peptides were immunoprecipitated using a pool of motif antibodies from Cell Signaling Technologies (US) comprising: phospho-MAPK substrate (PXS*P or S*PXR/K, #2325, RRID:AB_331820), phospho-CDKs substrate ((K/H)-S*P, #2324; RRID:AB_2244779), phospho-PLK binding motif (ST*P, #5243; RRID:AB_10891778) and phospho-tPE motif (T*PE, #3004; RRID:AB_10890649)-of phospho-MAPK (2325), phospho-CDK (2324), phospho-PLK (5243) and phospho-tPE (C3004) motif-recognizing antibodies immobilized onto protein A/G beads. Immunoprecipitated peptides were analyzed using an LTQ-Orbitrap-Velos. Sequences were assigned to the MS/MS spectra and evaluated using SEQUEST 3G and SORCERER 2 (Sage-N Research v4.0, Milpitas). Quantitative data was evaluated and clustered in Spotfire Decision Site (www.spotfire.tibco.com) and normalized using quartile normalization. Functional annotation and pathway analysis used DAVID (https://david.ncifcrf.gov/). […]
Phospho-proteome analyses
Adherent COLO205 cells were washed with PBS and cells lysed using urea lysis buffer (9 M Urea, 20 mM HEPES, pH 8.0, 1 mM beta-glycerophosphate, 1 mM sodium vanadate, 2.5 mM sodium pyrophosphate) and stored at -80 °C prior to analysis. The supernatants were reduced with 100 mM DTT for 30 minutes at 55 °C, followed by alkylation with 50 mM iodoacetimide for 15 minutes at ambient temperature in the dark.
The samples were diluted in 20 mM HEPES, pH 8.0 and digested overnight with 10 ug/mL trypsin-tosylphenylalanyl chloromethyl ketone in 1 mM HCl. Digested peptides were acidified with 1% formic acid and then desalted over 360-mg SEP PAK C18 columns (Waters, UK). Peptides were eluted with 40% acetonitrile in 0.125% formic acid, dried under a vacuum and the lyophilised peptides used for immunoprecipitation.
A pool of motif antibodies from Cell Signaling Technologies (US) comprising: phospho-MAPK substrate (PXS*P or S*PXR/K, #2325, RRID:AB_331820), phospho-CDKs substrate ((K/H)S*P, #2324; RRID:AB_2244779), phospho-PLK binding motif (ST*P, […]
RRID:AB_10890649), were immobilised onto protein A/G beads overnight at 4 °C. The lyophilised peptides were resuspended in MOPS buffer (50 mM MOPS, pH 7.2, 10 mM KH2PO4, 50 mM NaCl) and centrifuged for 5 mins at 13,500 rpm in an Eppendorf benchtop microcentrifuge. The supernatants were incubated with the motif-bound beads for 2.5 hours at 4 °C . The beads were harvested by centrifugation at 4000 rpm in an Eppendorf benchtop microcentrifuge for 5 mins, washed with MOPS buffer twice and washed again 5 times with deionised water. The peptides were eluted off the beads using 0.125% formic acid, were desalted and dried under a vacuum. The lyophilised immunoprecipitated peptides were resuspended in 0.125% formic acid and separated on a capillary column packed with Magic C18 AQ reversed-phase resin.
Peptides were eluted using a 72-minute linear gradient of acetonitrile in 0.125% formic acid delivered at 280nL/min. Samples were analysed using an LTQ-Orbitrap-Velos.
MS Parameter Settings were: MS Run Time 96 min, MS1 Scan Range (300.0 – 1500.00), Top 20 MS/MS (Min Signal 500, Isolation Width 2.0, Normalized Coll.
Charge State Rejection Enabled, Charge State 1+ Rejected, Dynamic Exclusion Enabled, Repeat Count 1, Repeat Duration 35.0, Exclusion List Size 500, Exclusion Duration 40.0, Exclusion Mass Width Relative to Mass, Exclusion Mass Width 10ppm). […]

[1] = AHCTF1 peptide 1205/1240 - STlrSTplaSpspSpgrSpqr - 1225/1265
[2] = AHNAK peptide 5778 - hrSnSfSderefSgpsTpTglefeggevsleggk - 5811
[3] = AKNA peptide 429 - vpqefqTpeqatelvhqlqedyhr - 452
[4] = ANLN peptide 381 - cqehSkeSparsTphrTpiiTpntk - 405
[5] = ARHGAP19 peptide 443 - knpTpesvaigelk - 456
[6] = ARID4B peptide 922/1008 - kaefpssgsnsvlnTpptTpespssvtvtegsr - 954/1040
[7] = ATN1 peptide 158 - pyhppplfppSpqppdstpr - 177
[8] = BAP1 peptide 513 - sanptrpsSpvtshisk - 529
[9] = BCL11B peptide 367 - lrelagnSSTpppvSpgrgnpmhr - 390
[10] = CC2D1A peptide 200 - gpasTpTySpaptqpapr - 217
[11] = CDT1 peptide 72 - lsvdevsSpstpeapdipacpspgqk - 97
[12] = CDT1 peptide 72 - lsvdevsspsTpeapdipacpSpgqk - 97
[13] = CHAMP1 peptide 198 - lapvpspepqkpapvSpesvk - 219
[14] = CHD4 peptide 1530 - mSqpgSpSpkTpTpSTpgdTqpnTpapvppaedgik - 1565
[15] = CHD4 peptide 1531 - SqpgSpSpkTptpstpgdtqpntpapvppaedgik - 1565
[16] = CHD4 peptide 1540 - TpTpSTpgdtqpnTpapvppaedgik - 1565
[17] = CHD4 peptide 1540 - TptpStpgdtqpnTpapvppaedgikieenslk - 1572
[18] = ECT2 peptide 403 - krpSaehSlSigSlldiSnTpeSsinYgdtpk - 434
[19] = EEF1G peptide 379 - gqelafplSpdwqvdyesytwr - 100
[20] = EGR1 peptide 6 - aemqlmsplqisdpfgsfphSptmdnypk -34
[21] = EGR1 peptide 6 - aemqlmsplqisdpfgsfphspTmdnypk - 34
[22] = EPC2 peptide 343 - aealitsqqpTpetlpvink - 362
[23] = EZH2 peptide 46 - grlpnnssrpstpTinvlesk - 376
[24] = FAM122A peptide 69 - hglllpaSpvr - 79
[25] = FBLIM1 peptide 40 - grpweapapmkTpeaglagrpspwttpgr - 68
[26] = FBXW9 peptide 43 - sglafsrpsqlsTpaaSpSasepr - 66
[27] = FBXW9 peptide 48 - srpsqlStpaaSpsasepr - 66
[28] = FOSL1 peptide 235 - ftypStpepcasahr - 249
[29] = GATA6 peptide 26 - afparepStppSpisssssscsr - 48
[30] = GOLGA4 peptide 7 - qkiseeqqqlqqalapaqassnSStptrm#rsr - 39
[31] = HCFC1 peptide 1483 - avttvtqSTpvpgpsvpppeelqvSpgpr - 1511
[32] = HMCES peptide 152 - sgsigaadSpenwek - 166
[33] = HSPA12A peptide 99 - tpttillTper - 109
[34] = INCENP peptide 259 - iaqvSpgprdSpafpdSpwrer - 280
[35] = KANSL1 peptide 955 - ttpqlgSanpSTpqpaSpdvssshslseyShgqSpr - 989
[36] = KIAA1522 peptide 509/569 - rpprSper - 517/576
[37] = KLF6 peptide 140 - lsssvtStppsSpelsrepsqlwgcvpgelpSpgkvr - 176
[38] = KMT2A peptide 3025 - nssTpglqvpvsptvpiqnqk - 3045
[39] = L3MBTL2 peptide 60 - eagelpTSplhllSpgTpr - 78
[40] = LARP4B peptide 725 - rlSreqSTppkSpq - 738
[41] = LASP1 peptide 60 - qsftmvadTpenlr - 73
[42] = LCOR peptide 1212 - arpstkTpessaaqr - 1226
[43] = LIMD1 peptide 190 - wgdkpgvSpSiglsvgsgwpSspgsdpplpkpcgdhplnhr - 230
[44] = LMNA peptide 12 - sgaqaSstplSptr - 25
[45] = LMO7 peptide 595/929 - YngdvedikrTpnnvvSTpapSpdasqlasslssqk - 630/964
[46] = LSM14B peptide 85 - aqhtlpqdpaivqsslgsasaSpfqphvpYSpfr - 118
[47] = MAP7 peptide 668 - vtvesTpdlekqpnengvsvqnenfeeiinlpigskpsr - 706
[48] = MCM4 peptide 38 - rgedststgelqpmptSpgvdlqSpaaqdvl - 68

Cn1cc(-c2ccc(-c3cncc(Cl)c3N3CCC4(CCNC4=O)CC3)cc2)cn1 [CCT251545]
CMPD 1/DMSO [1]: 1.802
MEAN MS SIGNAL CMPD 1 6 H [1]: 238204
CMPD 1/DMSO [2]: 1.997
MEAN MS SIGNAL CMPD 1 6 H [2]: 301575
CMPD 1/DMSO [3]: 0.569
MEAN MS SIGNAL CMPD 1 6 H [3]: 41850
CMPD 1/DMSO [4]: 0.512
MEAN MS SIGNAL CMPD 1 6 H [4]: 62532
CMPD 1/DMSO [5]: 0.589
MEAN MS SIGNAL CMPD 1 6 H [5]: 62950
CMPD 1/DMSO [6]: 2.069
MEAN MS SIGNAL CMPD 1 6 H [6]: 72000
CMPD 1/DMSO [7]: 0.526
MEAN MS SIGNAL CMPD 1 6 H [7]: 1231725
CMPD 1/DMSO [8]: 1.826
MEAN MS SIGNAL CMPD 1 6 H [8]: 26677
CMPD 1/DMSO [9]: 1.888
MEAN MS SIGNAL CMPD 1 6 H [9]: 33472
CMPD 1/DMSO [10]: 0.625
MEAN MS SIGNAL CMPD 1 6 H [10]: 70653
CMPD 1/DMSO [11]: 0.368
MEAN MS SIGNAL CMPD 1 6 H [11]: 55322
CMPD 1/DMSO [12]: 0.429
MEAN MS SIGNAL CMPD 1 6 H [12]: 15418
CMPD 1/DMSO [13]: 2.031
MEAN MS SIGNAL CMPD 1 6 H [13]: 849660
CMPD 1/DMSO [14]: 0.456
MEAN MS SIGNAL CMPD 1 6 H [14]: 51533
CMPD 1/DMSO [15]: 0.310
MEAN MS SIGNAL CMPD 1 6 H [15]: 35479
CMPD 1/DMSO [16]: 0.193
MEAN MS SIGNAL CMPD 1 6 H [16]: 31383
CMPD 1/DMSO [17]: 0.000
MEAN MS SIGNAL CMPD 1 6 H [17]: 0
abundance of phospho-peptide corresponding to phospho-STAT1 SER727 (COLO205, 350 nM, 6 h): decrease in abundance
phospho-peptides whose label-free intensities remained unchanged (COLO205, 350 nM, 6 h): 95%
phosphorylation at MED13 THR565, MED14 SER1112 and MED26 SER314 (COLO205, 350 nM, 6 h): reducing phosphorylation
phosphorylation of POLR2A CTD phospho-peptides (COLO205, 350 nM, 6 h): no evidence of decreased phosphorylation
number of phospho-peptides consistently decreased by > 1.5-fold (COLO205, 350 nM, 6 h, both independent biological repeats, 2,734 phospho-peptides identified): 123
number of individual proteins represented by the decreased phospho-peptides (COLO205, 350 nM, 6 h, > 1.5-fold decrease): 95
CMPD 1/DMSO [18]: 0.501
MEAN MS SIGNAL CMPD 1 6 H [18]: 22710
CMPD 1/DMSO [19]: 0.521
MEAN MS SIGNAL CMPD 1 6 H [19]: 184020
CMPD 1/DMSO [20]: 0.400
MEAN MS SIGNAL CMPD 1 6 H [20]: 23807
CMPD 1/DMSO [21]: 0.452
MEAN MS SIGNAL CMPD 1 6 H [21]: 16379
CMPD 1/DMSO [22]: 0.365
MEAN MS SIGNAL CMPD 1 6 H [22]: 24823
CMPD 1/DMSO [23]: 1.970
MEAN MS SIGNAL CMPD 1 6 H [23]: 31995
CMPD 1/DMSO [24]: 2.184
MEAN MS SIGNAL CMPD 1 6 H [24]: 196079
CMPD 1/DMSO [25]: 0.573
MEAN MS SIGNAL CMPD 1 6 H [25]: 86595
CMPD 1/DMSO [26]: 0.530
MEAN MS SIGNAL CMPD 1 6 H [26]: 311610
CMPD 1/DMSO [27]: 0.400
MEAN MS SIGNAL CMPD 1 6 H [27]: 48006
CMPD 1/DMSO [28]: 0.504
MEAN MS SIGNAL CMPD 1 6 H [28]: 66830
CMPD 1/DMSO [29]: 2.355
MEAN MS SIGNAL CMPD 1 6 H [29]: 187382
CMPD 1/DMSO [30]: 2.322
MEAN MS SIGNAL CMPD 1 6 H [30]: 104624
CMPD 1/DMSO [31]: 0.405
MEAN MS SIGNAL CMPD 1 6 H [31]: 16700
CMPD 1/DMSO [32]: 0.453
MEAN MS SIGNAL CMPD 1 6 H [32]: 63819
CMPD 1/DMSO [33]: 0.556
MEAN MS SIGNAL CMPD 1 6 H [33]: 24367
CMPD 1/DMSO [34]: 0.465
MEAN MS SIGNAL CMPD 1 6 H [34]: 323217
CMPD 1/DMSO [35]: 0.484
MEAN MS SIGNAL CMPD 1 6 H [35]: 12101
CMPD 1/DMSO [36]: 1.797
MEAN MS SIGNAL CMPD 1 6 H [36]: 115710
CMPD 1/DMSO [37]: 0.607
MEAN MS SIGNAL CMPD 1 6 H [37]: 32118
CMPD 1/DMSO [38]: 2.063
MEAN MS SIGNAL CMPD 1 6 H [38]: 28229
CMPD 1/DMSO [39]: 0.490
MEAN MS SIGNAL CMPD 1 6 H [39]: 91427
CMPD 1/DMSO [40]: 2.299
MEAN MS SIGNAL CMPD 1 6 H [40]: 120169
CMPD 1/DMSO [41]: 0.584
MEAN MS SIGNAL CMPD 1 6 H [41]: 786663
CMPD 1/DMSO [42]: 0.545
MEAN MS SIGNAL CMPD 1 6 H [42]: 120796
CMPD 1/DMSO [43]: 0.471
MEAN MS SIGNAL CMPD 1 6 H [43]: 25519
CMPD 1/DMSO [44]: 0.517
MEAN MS SIGNAL CMPD 1 6 H [44]: 46469
CMPD 1/DMSO [45]: 0.463
MEAN MS SIGNAL CMPD 1 6 H [45]: 25654
CMPD 1/DMSO [46]: 0.523
MEAN MS SIGNAL CMPD 1 6 H [46]: 38083
CMPD 1/DMSO [47]: 0.544
MEAN MS SIGNAL CMPD 1 6 H [47]: 159179
CMPD 1/DMSO [48]: 0.432
MEAN MS SIGNAL CMPD 1 6 H [48]: 77526
CMPD 1/DMSO (MCM4 peptide 69 - fSsppqmhssaipldfdvSsplTygtpssr - 98): 0.605
